Assay results as given in patent publication US7247634B2, “Rifamycin derivatives effective against drug-resistant microbes” (Cumbre Pharmaceuticals Inc., priority 2004, dated 2007).
Values after ≈ are worked out from the molar mass of the structure shown.

How the values were obtained:
Format in all cases: cell-based
[1] = system: Staphylococcus aureus ATCC29213 rpoB^H418Y; assay: microbe, parasite or virus in culture; conditions: ATCC29213, read-out: Antimicrobial activity (MIC)
Method: (§1) Representative compounds were assayed for antimicrobial activity as follows: Minimum Inhibitory Concentrations (“MICs”) were determined by the microbroth dilution method as per NCCLS guidelines (National Committee for Clinical Laboratory Standards. 2000. Methods for dilution antimicrobial susceptibility tests for bacteria that grow aerobically, 5th ed. M7-A5. National Committee for Clinical Laboratory Standards, Wayne, Pa.), except that all growth incubations were conducted at 37° C. Bacterial cultures were tested in the following bacteriological media: S. aureus, S. epidermidis, and E. coli in Cation-Adjusted Mueller-Hinton Broth, S. pneumoniae in THY Broth supplemented with 1 mg/mL catalase under 5% CO2 atmosphere, S. pyogenes in THY Broth, E. faecalis in BHI Broth, H. influenzae in BHI Broth supplemented with 0.75 μL of 1 mg/mL NAD and 150 μL of 1 mg/ml hematin per 5 mL, and M. smegmatis in Middlebrook Broth plus ADC Enrichment.
(§2) S. aureus ATCC 29213 RpoB^H418Y is a rifampin-resistant strain with a mutation in RNA polymerase, the biological target of rifamycin antibiotics. […] S. aureus EN1252a gyrA^S84L grlA^S80F is a quinolone-resistant strain due to double mutations to DNA gyrase and topoisomerase IV, the two biological targets for quinolone antibiotics.

[2] = system: Staphylococcus aureus ATCC29213 rpoB^D417Y; assay: microbe, parasite or virus in culture; conditions: ATCC29213, read-out: Antimicrobial activity (MIC)
Method: as §1, §2

[3] = system: Staphylococcus aureus EN1252a gyrA^S84L grlA^S80F; assay: microbe, parasite or virus in culture; conditions: read-out: Antimicrobial activity (MIC)
Method: as §1, §2

[4] = system: Staphylococcus epidermidis ATCC12228; assay: MIC, microbroth dilution (NCCLS); conditions: rifS strain, Cation-Adjusted Mueller-Hinton Broth, 37° C., read-out: Antimicrobial activity (MIC)
[5] = system: Streptococcus pyogenes ATCC19615; assay: MIC, microbroth dilution (NCCLS); conditions: rifS strain, THY Broth, 37° C., read-out: Antimicrobial activity (MIC)
[6] = system: Escherichia coli ATCC25922; assay: MIC, microbroth dilution (NCCLS); conditions: rifS strain, Cation-Adjusted Mueller-Hinton Broth, 37° C., read-out: Antimicrobial activity (MIC)
[7] = system: Streptococcus pneumoniae ATCC6303; assay: MIC, microbroth dilution (NCCLS); conditions: rifS strain, THY Broth with 1 mg/mL catalase, 5% CO2, 37° C., read-out: Antimicrobial activity (MIC)
[8] = system: Enterococcus faecalis ATCC29212; assay: MIC, microbroth dilution (NCCLS); conditions: rifS strain, BHI Broth, 37° C., read-out: Antimicrobial activity (MIC)
[9] = system: Mycobacterium smegmatis ATCC700084; assay: MIC, microbroth dilution (NCCLS); conditions: Mycolicibacterium smegmatis, rifS strain, Middlebrook Broth plus ADC Enrichment, 37° C., read-out: Antimicrobial activity (MIC)
[10] = system: Staphylococcus aureus ATCC29213; assay: MIC, microbroth dilution (NCCLS); conditions: rifS strain, Cation-Adjusted Mueller-Hinton Broth, 37° C., read-out: Antimicrobial activity (MIC)
[11] = system: Haemophilus influenzae ATCC10211; assay: MIC, microbroth dilution (NCCLS); conditions: rifS strain, BHI Broth with NAD and hematin, 37° C., read-out: Antimicrobial activity (MIC)

`COc1c(N2CCCC(NC(=O)C3CCN(C4=C5NC(=O)/C(C)=C\C=C\[C@H](C)[C@H](O)[C@@H](C)[C@@H](O)[C@@H](C)[C@H](OC(C)=O)[C@H](C)[C@@H](OC)/C=C/O[C@@]6(C)Oc7c(C)c(O)c(c(c7C6=O)C4=O)C5=O)CC3)C2)c(F)cc2c(=O)c(C(=O)O)cn(C3CC3)c12` (mixture of isomers) [Example 52] gave an MIC [1] of 0.06 to 16 µg/mL (≈ 0.0508 to 13.6 µM), an MIC [2] of 0.06 to 32 µg/mL (≈ 0.0508 to 27.1 µM) and an MIC [3] of 0.004 to 0.5 µg/mL (≈ 0.00339 to 0.424 µM). The MIC [4] was 0.008 to 0.063 µg/mL (≈ 0.00678 to 0.0534 µM), the MIC [5] was 0.008 to 0.063 µg/mL (≈ 0.00678 to 0.0534 µM) and the MIC [6] was 0.125 to 8 µg/mL (≈ 0.106 to 6.78 µM). For the same compound, the MIC [7] was 0.008 to 0.125 µg/mL (≈ 0.00678 to 0.106 µM), the MIC [8] was 2 to 32 µg/mL (≈ 1.69 to 27.1 µM) and the MIC [9] was 0.5 to 64 µg/mL. For the same compound, the MIC [10] was 0.004 to 0.5 µg/mL (≈ 0.00339 to 0.424 µM) and the MIC [11] was 0.125 to 2 µg/mL (≈ 0.106 to 1.69 µM).

`CO[C@H]1/C=C/O[C@@]2(C)Oc3c(C)c(O)c4c(c3C2=O)C(=O)C(N2CCN(C3CCN(c5nc6c(cc5F)c(=O)c(C(=O)O)cn6-c5ccc(F)cc5F)C3)CC2)=C(NC(=O)/C(C)=C\C=C\[C@H](C)[C@H](O)[C@@H](C)[C@@H](O)[C@@H](C)[C@H](OC(C)=O)[C@@H]1C)C4=O` (mixture of isomers) [Example 54] gave an MIC [1] of 0.06 to 16 µg/mL (≈ 0.0514 to 13.7 µM), an MIC [2] of 0.06 to 32 µg/mL (≈ 0.0514 to 27.4 µM) and an MIC [3] of 0.004 to 0.5 µg/mL (≈ 0.00343 to 0.428 µM). For the same compound, the MIC [4] was 0.008 to 0.063 µg/mL (≈ 0.00685 to 0.054 µM), the MIC [5] was 0.008 to 0.063 µg/mL (≈ 0.00685 to 0.054 µM) and the MIC [6] was 0.125 to 8 µg/mL (≈ 0.107 to 6.85 µM). For the same compound, the MIC [7] was 0.008 to 0.125 µg/mL (≈ 0.00685 to 0.107 µM), the MIC [8] was 2 to 32 µg/mL (≈ 1.71 to 27.4 µM) and the MIC [9] was 0.5 to 64 µg/mL. The MIC [10] was 0.004 to 0.5 µg/mL (≈ 0.00343 to 0.428 µM) and the MIC [11] was 0.125 to 2 µg/mL (≈ 0.107 to 1.71 µM).

`COc1c(N2CCC(C3(N4CCN(C5=C6NC(=O)/C(C)=C\C=C\[C@H](C)[C@H](O)[C@@H](C)[C@@H](O)[C@@H](C)[C@H](OC(C)=O)[C@H](C)[C@@H](OC)/C=C/O[C@@]7(C)Oc8c(C)c(O)c(c(c8C7=O)C5=O)C6=O)CC4)CC3)C2)c(F)cc2c(=O)c(C(=O)O)cn(C3CC3)c12` (mixture of isomers) [Example 56, (R/S)-3-{4-[1-(3-Carboxy-1-cyclopropyl-6-fluoro-8-methoxy-4-oxo-1,4-dihydroquinoline-7-yl)-pyrrolidin-3-yl-cyclopropyl]-piperazin-1-yl}-rifamycin S] was tested, and the MIC [1] was 0.06 to 16 µg/mL (≈ 0.0515 to 13.7 µM), the MIC [2] was 0.06 to 32 µg/mL (≈ 0.0515 to 27.5 µM) and the MIC [3] was 0.004 to 0.5 µg/mL (≈ 0.00344 to 0.429 µM). It also gave an MIC [4] of 0.008 to 0.063 µg/mL (≈ 0.00687 to 0.0541 µM), an MIC [5] of 0.008 to 0.063 µg/mL (≈ 0.00687 to 0.0541 µM) and an MIC [6] of 0.125 to 8 µg/mL (≈ 0.107 to 6.87 µM). For the same compound, the MIC [7] was 0.008 to 0.125 µg/mL (≈ 0.00687 to 0.107 µM), the MIC [8] was 2 to 32 µg/mL (≈ 1.72 to 27.5 µM) and the MIC [9] was 0.5 to 64 µg/mL. For the same compound, the MIC [10] was 0.004 to 0.5 µg/mL (≈ 0.00344 to 0.429 µM) and the MIC [11] was 0.125 to 2 µg/mL (≈ 0.107 to 1.72 µM).

For `CO[C@H]1/C=C/O[C@@]2(C)Oc3c(C)c(O)c4c(c3C2=O)C(=O)C(N2CCC(N(C)C3(C5CCN(c6nc7c(cc6F)c(=O)c(C(=O)O)cn7-c6ccc(F)cc6F)C5)CC3)CC2)=C(NC(=O)/C(C)=C\C=C\[C@H](C)[C@H](O)[C@@H](C)[C@@H](O)[C@@H](C)[C@H](OC(C)=O)[C@@H]1C)C4=O` (mixture of isomers) [Example 58], the MIC [1] was 0.06 to 16 µg/mL (≈ 0.0486 to 13 µM), the MIC [2] was 0.06 to 32 µg/mL (≈ 0.0486 to 25.9 µM) and the MIC [3] was 0.004 to 0.5 µg/mL (≈ 0.00324 to 0.405 µM). The MIC [4] was 0.008 to 0.063 µg/mL (≈ 0.00648 to 0.051 µM), the MIC [5] was 0.008 to 0.063 µg/mL (≈ 0.00648 to 0.051 µM) and the MIC [6] was 0.125 to 8 µg/mL (≈ 0.101 to 6.48 µM). It also gave an MIC [7] of 0.008 to 0.125 µg/mL (≈ 0.00648 to 0.101 µM), an MIC [8] of 2 to 32 µg/mL (≈ 1.62 to 25.9 µM) and an MIC [9] of 0.5 to 64 µg/mL. For the same compound, the MIC [10] was 0.004 to 0.5 µg/mL (≈ 0.00324 to 0.405 µM) and the MIC [11] was 0.125 to 2 µg/mL (≈ 0.101 to 1.62 µM).

For `CON=C1CN(c2nc3c(cc2F)c(=O)c(C(=O)O)cn3C2CC2)CC1CNC1CCN(C2=C3NC(=O)/C(C)=C\C=C\[C@H](C)[C@H](O)[C@@H](C)[C@@H](O)[C@@H](C)[C@H](OC(C)=O)[C@H](C)[C@@H](OC)/C=C/O[C@@]4(C)Oc5c(C)c(O)c(c(c5C4=O)C2=O)C3=O)CC1` (mixture of isomers) [Example 59, (R/S)-3-{4-[1-(3-Carboxy-1-cyclopropyl-6-fluoro-4-oxo-1,4-dihydro-1-[1,8]naphthyridine-7-yl)-3-methoxyiminopyrrolidin-4-ylmethylamino]-piperidin-1-yl}rifamycin S], the MIC [1] was 0.06 to 16 µg/mL (≈ 0.0514 to 13.7 µM), the MIC [2] was 0.06 to 32 µg/mL (≈ 0.0514 to 27.4 µM) and the MIC [3] was 0.004 to 0.5 µg/mL (≈ 0.00343 to 0.429 µM). It also gave an MIC [4] of 0.008 to 0.063 µg/mL (≈ 0.00686 to 0.054 µM), an MIC [5] of 0.008 to 0.063 µg/mL (≈ 0.00686 to 0.054 µM) and an MIC [6] of 0.125 to 8 µg/mL (≈ 0.107 to 6.86 µM). The MIC [7] was 0.008 to 0.125 µg/mL (≈ 0.00686 to 0.107 µM), the MIC [8] was 2 to 32 µg/mL (≈ 1.71 to 27.4 µM) and the MIC [9] was 0.5 to 64 µg/mL. The MIC [10] was 0.004 to 0.5 µg/mL (≈ 0.00343 to 0.429 µM) and the MIC [11] was 0.125 to 2 µg/mL (≈ 0.107 to 1.71 µM).

`CO[C@H]1/C=C/O[C@@]2(C)Oc3c(C)c(O)c4c(c3C2=O)C(=O)C(N2CCN(c3cc5c(cc3F)c(=O)c(C(=O)O)cn5C3CC3)CC2)=C(NC(=O)/C(C)=C\C=C\[C@H](C)[C@H](O)[C@@H](C)[C@@H](O)[C@@H](C)[C@H](OC(C)=O)[C@@H]1C)C4=O` [Example 4, 3-[4-(3-Carboxy-1-cyclopropyl-6-fluoro-4-oxo-1,4-dihydroquinolin-7-yl)piperazin-1-yl]rifamycin S] showed an MIC [1] of 0.06 to 16 µg/mL (≈ 0.0585 to 15.6 µM), an MIC [2] of 0.06 to 32 µg/mL (≈ 0.0585 to 31.2 µM) and an MIC [3] of 0.004 to 0.5 µg/mL (≈ 0.0039 to 0.488 µM). It also gave an MIC [4] of 0.008 to 0.063 µg/mL (≈ 0.0078 to 0.0615 µM), an MIC [5] of 0.008 to 0.063 µg/mL (≈ 0.0078 to 0.0615 µM) and an MIC [6] of 0.125 to 8 µg/mL (≈ 0.122 to 7.8 µM). For the same compound, the MIC [7] was 0.008 to 0.125 µg/mL (≈ 0.0078 to 0.122 µM), the MIC [8] was 2 to 32 µg/mL (≈ 1.95 to 31.2 µM) and the MIC [9] was 0.5 to 64 µg/mL. It also gave an MIC [10] of 0.004 to 0.5 µg/mL (≈ 0.0039 to 0.488 µM) and an MIC [11] of 0.125 to 2 µg/mL (≈ 0.122 to 1.95 µM).
